The subject of this test is TEAD Reporter-MCF7 cell line. Nature of the test: YAP/TEAD cellular activity assay: inhibition of TEAD-Luc activity in TEAD Reporter-MCF7 cell line. The class given is cell-based, human. Particulars: Homo sapiens, MCF7, 24 h, TEAD Reporter-MCF7 cells, 24 hours incubation with compound, luciferase readout. The procedure: YAP/TEAD Cellular Activity Assay
Quantitation of Compound Potency on the Inhibition of TEAD-Luc Activity in TEAD Reporter-MCF7 Cell Line.
The TEAD Reporter-MCF7 cell line containing the firefly luciferase gene under the control of TEAD responsive elements stably integrated into the human breast cancer cell line was purchased from BPS Bioscience (Cat #60618). The cells were cultured with complete culture medium ([…], 1 mM sodium pyruvate, 10% fetal bovine serum, 10 ng/mL insulin and 400 ug/mL G418 sulfate) prior to the assay. For the assay, the cells were harvested, resuspended in the complete culture medium without G418, and seeded into white solid bottom 384-well cell culture microplates in 25 uL with 10,000 cells per well. The plates were incubated at 37° C. in a CO2 incubator for 20-24 hours and the compounds were then transferred from Echo LDV plates directly into the 384-well white tissue culture plates with an Echo. The plates were incubated at 37° C. in a CO2 incubator for 24 hours and equal volume of ONE-Glo™ EX Luciferase reagent (Promega, Cat #E8150) was added. After mixing on a shaker at room temperature for 10 minutes, the luciferase activity was measured with an Envision. The percentage inhibition and EC50 values of compounds were calculated with Spotfire.
Required Materials • 1. TEAD reporter-MCF-7 Cells (BPS Bioscience, #60618) • 2. Complete Cell Culture Medium (without selection antibiotics) • EMEM 89% (ATCC, #30-2003) • FBS 10% (Hyclone, #SH30088.03) • 1% Non essential amino acids (Gibco, • 1 mM sodium pyruvate (Gibco, • Pen/Strep, 1% (Gibco, #15140-122) • 10 ng/mL insulin (Sigma, #10516) • 3. Complete Cell Culture Medium (with selection antibiotics) • EMEM 89% (ATCC, #30-2003) • F1% Non essential amino acids (Gibco, • 1 mM sodium pyruvate (Gibco, • BS 10% (Hyclone, #SH30088.03) • 10 ng/mL insulin (Sigma, #10516) • 400 ug/mL G418 sulfate (Agilent, #200049-21) • 4. Miscellaneous tissue culture equipment and reagents. • 5. White solid 384-well tissue culture plate (Greiner, Cat #781080) • 6. One Glo EX luciferase assay system (Promega, #E8150)
The following table tabulates the biological data disclosed for the current invention. The biological data was collected using the methodology described above. For each compound, TEAD-Luc EC50 values are listed in nanomolar (nM) concentration units.

Usually EC50 stands for the concentration that produces a half-maximal response. With `CNS(=O)(=O)c1ccc(Oc2ccc(C(F)(F)F)cc2)c(-c2nc(C)n3c2COCC3)c1` [1-22, N-methyl-3-(3-methyl-5,6-dihydro-8H-imidazo[5,1-c][1,4]oxazin-1-yl)-4-[4-(trifluoromethyl)phenoxy]benzene-1-sulfonamide], the EC50 turned out to be 1820 nM.
Take `CNS(=O)(=O)c1ccc(Oc2ccc(C(F)(F)F)cc2)c(-c2cnc3ccc(Cl)nn23)c1` [1-23, 3-(6-chloroimidazo[1,2-b]pyridazin-3-yl)-N-methyl-4-[4-(trifluoromethyl)phenoxy]benzene-1-sulfonamide]: the EC50 was 3340 nM.
Regarding `CNS(=O)(=O)c1ccc(Oc2ccc(C(F)(F)F)cc2)c(-c2cnc3ccc(N)cn23)c1` [1-24, 3-(6-aminoimidazo[1,2-a]pyridin-3-yl)-N-methyl-4-[4-(trifluoromethyl)phenoxy]benzene-1-sulfonamide], the EC50 came out at 5390 nM.
In the case of `CNS(=O)(=O)c1ccc(Oc2ccc(C(F)(F)F)cc2)c(-c2cnc3cc(C)ccn23)c1` [1-25, N-methyl-3-(7-methylimidazo[1,2-a]pyridin-3-yl)-4-[4-(trifluoromethyl)phenoxy]benzene-1-sulfonamide], the EC50 worked out at 3270 nM.
Take `CNS(=O)(=O)c1ccc(Oc2ccc(C(F)(F)F)cc2)c(-c2cnc3ncccn23)c1` [1-26, 3-(imidazo[1,2-a]pyrimidin-3-yl)-N-methyl-4-[4-(trifluoromethyl)phenoxy]benzene-1-sulfonamide]: the half-maximal effective concentration (EC50) is 335 nM.
Consider `CNS(=O)(=O)c1ccc(Oc2ccc(C(F)(F)F)cc2)c(-c2cn3ccccc3n2)c1` [1-27, 3-(imidazo[1,2-a]pyridin-2-yl)-N-methyl-4-[4-(trifluoromethyl)phenoxy]benzene-1-sulfonamide], for which the EC50 came out at 28.4 nM.
As for `CNS(=O)(=O)c1ccc(Oc2ccc(C(F)(F)F)cc2)c(-c2nc3ccccc3s2)c1` [1-28, 3-(1,3-benzothiazol-2-yl)-N-methyl-4-[4-(trifluoromethyl)phenoxy]benzene-1-sulfonamide], the EC50 amounted to 66.6 nM.
Consider `CNS(=O)(=O)c1ccc(Oc2ccc(C(F)(F)F)cc2)c(-c2nc3ccccc3o2)c1` [1-29, 3-(1,3-benzoxazol-2-yl)-N-methyl-4-[4-(trifluoromethyl)phenoxy]benzene-1-sulfonamide], for which the EC50 came out at 861 nM.
As for `CNS(=O)(=O)c1ccc(Oc2ccc(C(F)(F)F)cc2)c(-c2cn3ccc(C(=O)OC)cc3n2)c1` [1-30, methyl 2-{5-(methylsulfamoyl)-2-[4-(trifluoromethyl)phenoxy]phenyl} imidazo[1,2-a]pyridine-7-carboxylate], the EC50 worked out at 7800 nM.
With `CNS(=O)(=O)c1ccc(Oc2ccc(C(F)(F)F)cc2)c(-c2cn3ccc(C)cc3n2)c1` [1-31, N-methyl-3-(7-methylimidazo[1,2-a]pyridin-2-yl)-4-[4-(trifluoromethyl)phenoxy]benzene-1-sulfonamide], the EC50 turned out to be 40.6 nM.
On to `CNS(=O)(=O)c1ccc(Oc2ccc(C(F)(F)F)cc2)c(-c2cn3ccc(F)cc3n2)c1` [1-32, 3-(7-fluoroimidazo[1,2-a]pyridin-2-yl)-N-methyl-4-[4-(trifluoromethyl)phenoxy]benzene-1-sulfonamide], for which the EC50 came out at 62.4 nM.
With `CNS(=O)(=O)c1ccc(Oc2ccc(C(F)(F)F)cc2)c(-c2cn3cccc(C)c3n2)c1` [1-33, N-methyl-3-(8-methylimidazo[1,2-a]pyridin-2-yl)-4-[4-(trifluoromethyl)phenoxy]benzene-1-sulfonamide], the EC50 was found to be 236 nM.
As to `CNS(=O)(=O)c1ccc(Oc2ccc(C(F)(F)F)cc2)c(-c2cn3cc(C)ccc3n2)c1` [1-34, N-methyl-3-(6-methylimidazo[1,2-a]pyridin-2-yl)-4-[4-(trifluoromethyl)phenoxy]benzene-1-sulfonamide], the EC50 was 88.5 nM.
The same measure for `CNS(=O)(=O)c1ccc(Oc2ccc(C(F)(F)F)cc2)c(-c2cc3ccccn3n2)c1` [1-35, N-methyl-3-(pyrazolo[1,5-a]pyridin-2-y1)-4-[4-(trifluoromethyl)phenoxy]benzene-1-sulfonamide]: 99.4 nM; for `CNS(=O)(=O)c1ccc(Oc2ccc(C(F)(F)F)cc2)c(-c2cc3n(n2)CCCC3)c1` [1-36, N-methyl-3-(4,5,6,7-tetrahydropyrazolo[1,5-a]pyridin-2-yl)-4-[4-(trifluoromethyl)phenoxy]benzene-1-sulfonamide]: 4.6 nM.
For `CNS(=O)(=O)c1ccc(Oc2ccc(C(F)(F)F)cc2)c(-c2ncn3c2CCCC3)c1` [1-37, N-methyl-3-(5,6,7,8-tetrahydroimidazo[1,5-a]pyridin-1-yl)-4-[4-(trifluoromethyl)phenoxy]benzene-1-sulfonamide], the EC50 turned out to be 414 nM.
Take `CNS(=O)(=O)c1ccc(Oc2ccc(C(F)F)cc2)c(-c2cn3c(n2)CCC3)c1` [1-40, 4-[4-(difluoromethyl)phenoxy]-3-(6,7-dihydro-5H-pyrrolo[1,2-a]imidazol-2-yl)-N-methylbenzene-1-sulfonamide]: the EC50 stood at 27 nM.
On to `CNS(=O)(=O)c1ccc(Oc2ccc(C(F)(F)F)cc2)c(-c2cc3n(n2)CCN3)c1` [1-45, 3-(2,3-dihydro-1H-imidazo[1,2-b]pyrazol-6-yl)-N-methyl-4-[4-(trifluoromethyl)phenoxy]benzene-1-sulfonamide], for which the EC50 came to 64.4 nM.
`CNS(=O)(=O)c1ccc(Oc2ccc(F)cc2)c(-c2cnn3c2OCC3)c1` [1-46, 3-(2,3-dihydropyrazolo[5,1-b]oxazol-7-yl)-4-(4-fluorophenoxy)-N-methylbenzenesulfonamide]: the EC50 was 1860 nM.
The same measure for `CNS(=O)(=O)c1ccc(Oc2ccc(Cl)cc2)c(-c2cnn3c2OCC3)c1` [1-47, 4-(4-chlorophenoxy)-3-(2,3-dihydropyrazolo[5,1-b]oxazol-7-yl)-N-methylbenzenesulfonamide]: 104 nM.
To `CNS(=O)(=O)c1ccc(Oc2ccc(F)c(F)c2)c(-c2cnn3c2OCC3)c1` [1-48, 4-(3,4-difluorophenoxy)-3-(2,3-dihydropyrazolo[5,1-b]oxazol-7-yl)-N-methylbenzenesulfonamide] belongs 1060 nM; to `CNS(=O)(=O)c1ccc(Oc2cccc(C(F)(F)F)c2)c(-c2cnn3c2OCC3)c1` [1-49, 3-(2,3-dihydropyrazolo[5,1-b]oxazol-7-yl)-N-methyl-4-(3-(trifluoromethyl)phenoxy)benzenesulfonamide], 315 nM.
On to `CNS(=O)(=O)c1ccc(Oc2ccc(C(C)=O)cc2)c(-c2cn3c(n2)CCC3)c1` [1-50, 4-(4-acetylphenoxy)-3-(6,7-dihydro-5H-pyrrolo[1,2-a]imidazol-2-yl)-N-methylbenzene-1-sulfonamide], for which the EC50 was 416 nM.
To `CNS(=O)(=O)c1ccc(Oc2ccc(C(F)(F)F)cc2)c(-c2cnn3c2OCC3)c1` [2-1, 3-(2,3-Dihydropyrazolo[5,1-b]oxazol-7-yl)-N-methyl-4-(4-(trifluoromethyl)phenoxy)benzenesulfonamide] belongs 26 nM; to `CNS(=O)(=O)c1ccc(Oc2ccc(C(F)(F)F)cc2)c(-c2ccc3cc(OC)nnc3c2)c1` [2-2, 3-(3-Methoxycinnolin-7-yl)-N-methyl-4-[4-(trifluoromethyl)phenoxy]benzene-1-sulfonamide], 50.5 nM.
On to `CNS(=O)(=O)c1ccc(Oc2ccc(C(F)(F)F)cc2)c(-c2ccc(OC)c3nc(C(F)(F)F)[nH]c23)c1` [2-3, 3-[4-methoxy-2-(trifluoromethyl)-1H-benzimidazol-7-yl]-N-methyl-4-[4-(trifluoromethyl)phenoxy]benzene-1-sulfonamide], for which the EC50 was found to be 4920 nM.
Regarding `CNS(=O)(=O)c1ccc(Oc2ccc(C(F)(F)F)cc2)c(-c2ccc3c(c2)CC(=O)N3)c1` [2-4, N-methyl-3-(2-oxo-2,3-dihydro-1H-indol-5-yl)-4-[4-(trifluoromethyl)phenoxy]benzene-1-sulfonamide], the EC50 is 5480 nM.
In the case of `CNS(=O)(=O)c1ccc(Oc2ccc(C(F)(F)F)cc2)c(-c2ccc3[nH]c(=O)[nH]c3c2)c1` [2-5, N-methyl-3-(2-oxo-2,3-dihydro-1H-benzimidazol-5-yl)-4-[4-(trifluoromethyl)phenoxy]benzene-1-sulfonamide], the EC50 worked out at 4540 nM.
On to `CNS(=O)(=O)c1ccc(Oc2ccc(C(F)(F)F)cc2)c(-c2ccc3scnc3c2)c1` [2-6, 3-(1,3-benzothiazol-5-yl)-N-methyl-4-[4-(trifluoromethyl)phenoxy]benzene-1-sulfonamide], for which the EC50 turned out to be 210 nM.
